Consider one compound from PMC5048095, “Agroindustrial Wastes as Alternative for Lipase Production by Candida viswanathii under Solid-State Cultivation: Purification, Biochemical Properties, and Its Potential for Poultry Fat Hydrolysis” (Enzyme Research, 2016).

Molecules are shown by their SMILES.

This test deals with T1, purified C. viswanathii lipase.
T1 construct: native extracellular lipase from solid-state culture, Octyl Sepharose purified
The experiment in a line: p-nitrophenol release at […] nm, Lineweaver-Burk plot. It counts as biochemical, Candida viswanathii. As to conditions: 0.0 to 1.0 mM p-NPP; pH and temperature of the kinetic assay not given; free enzyme.

The Km is the concentration of substrate that gives half-maximal velocity.

Take `CCCCCCCCCCCCCCCC(=O)Oc1ccc([N+](=O)[O-])cc1` [p-NPP, p-nitrophenyl palmitate]: the Km was 120 µM.
